# Reference: ChEMBL document CHEMBL3774345, “Synthesis of new diarylamides with pyrimidinyl pyridine scaffold and evaluation of their anti-proliferative effect on cancer cell lines” (Bioorg Med Chem Lett, 2016)
# Experiments:
# MDA-MB-231 [1] = assay: Cytotoxicity against human MDA-MB-231 cells assessed as cell growth at 10^-7 M after 24 hrs by SRB assay; format: functional; conditions: MDA-MB-231, 24 h, read-out: Activity
# SK-MEL-5 = assay: Cytotoxicity against human SK-MEL-5 cells assessed as cell growth at 10^-8 M after 24 hrs by SRB assay; format: functional; conditions: SK-MEL-5, 24 h, read-out: Activity
# ACHN = assay: Cytotoxicity against human ACHN cells assessed as cell growth at 10^-5 M after 24 hrs by SRB assay; format: functional; conditions: read-out: Activity
# CCRF-CEM = assay: Cytotoxicity against human CCRF-CEM cells assessed as cell growth at 10^-6 M after 24 hrs by SRB assay; format: functional; conditions: read-out: Activity
# Malme-3M [2] = assay: Cytotoxicity against human MALME-3M cells assessed as cell growth at 10^-8 M after 24 hrs by SRB assay; format: functional; conditions: read-out: Activity
# T47D [3] = assay: Cytotoxicity against human T47D cells assessed as cell growth at 10^-5 M after 24 hrs by SRB assay; format: functional; conditions: read-out: Activity
# HT-29 = assay: Cytotoxicity against human HT-29 cells assessed as cell growth at 10^-6 M after 24 hrs by SRB assay; format: functional; conditions: HT-29, 24 h, read-out: Activity
# [4] = Cytotoxicity against human UO31 cells assessed as cell growth at 10^-6 M after 24 hrs by SRB assay; format: functional; conditions: UO-31, 24 h, read-out: Activity
# MDA-MB-435 = assay: Cytotoxicity against human MDA-MB-435 cells after 24 hrs by SRB assay; format: functional, cell-based; conditions: MDA-MB-435, 24 h
# [5] = Cytotoxicity against human COLO205 cells assessed as cell growth at 10^-6 M after 24 hrs by SRB assay; format: functional; conditions: COLO 205, 24 h, read-out: Activity
# MDA-MB-231 [6] = assay: Cytotoxicity against human MDA-MB-231 cells after 24 hrs by SRB assay; format: functional, cell-based; conditions: MDA-MB-231, 24 h
# EKVX = assay: Cytotoxicity against human EKVX cells assessed as cell growth at 10^-8 M after 24 hrs by SRB assay; format: functional; conditions: read-out: Activity
# [7] = Cytotoxicity against human TK10 cells assessed as cell growth at 10^-5 M after 24 hrs by SRB assay; format: functional; conditions: TK-10, 24 h, read-out: Activity
# [8] = Cytotoxicity against human SF539 cells assessed as cell growth at 10^-6 M after 24 hrs by SRB assay; format: functional; conditions: SF-539, 24 h, read-out: Activity
# [9] = Cytotoxicity against human HL-60(TB) cells assessed as cell growth at 10^-6 M after 24 hrs by SRB assay; format: functional; conditions: HL-60, 24 h, read-out: Activity
# [10] = Cytotoxicity against human COLO205 cells assessed as cell growth at 10^-4 M after 24 hrs by SRB assay; format: functional; conditions: COLO 205, 24 h, read-out: Activity
# A549 [11] = assay: Cytotoxicity against human A549 cells assessed as cell growth at 10^-7 M after 24 hrs by SRB assay; format: functional; conditions: A549, 24 h, read-out: Activity
# A549 [12] = assay: Cytotoxicity against human A549 cells assessed as cell growth at 10^-5 M after 24 hrs by SRB assay; format: functional; conditions: A549, 24 h, read-out: Activity
# [13] = Cytotoxicity against human BT549 cells after 24 hrs by SRB assay; format: functional; conditions: BT-549, 24 h
# NCI-H226 = assay: Cytotoxicity against human NCI-H226 cells assessed as cell growth at 10^-6 M after 24 hrs by SRB assay; format: functional; conditions: NCI-H226, 24 h, read-out: Activity
# T47D [14] = assay: Cytotoxicity against human T47D cells assessed as cell growth at 10^-8 M after 24 hrs by SRB assay; format: functional; conditions: read-out: Activity
# K562 [15] = assay: Cytotoxicity against human K562 cells after 24 hrs by SRB assay; format: functional; conditions: K562, 24 h
# [16] = Cytotoxicity against human SW620 cells assessed as cell growth at 10^-6 M after 24 hrs by SRB assay; format: functional; conditions: SW-620, 24 h, read-out: Activity
# Malme-3M [17] = assay: Cytotoxicity against human MALME-3M cells assessed as cell growth at 10^-7 M after 24 hrs by SRB assay; format: functional; conditions: read-out: Activity
# [18] = Cytotoxicity against human RXF393 cells assessed as cell growth at 10^-8 M after 24 hrs by SRB assay; format: functional; conditions: RXF 393, 24 h, read-out: Activity
# U-251 = assay: Cytotoxicity against human U251 cells after 24 hrs by SRB assay; format: functional; conditions: U-251, 24 h
# [19] = Cytotoxicity against human SF295 cells assessed as cell growth at 10^-4 M after 24 hrs by SRB assay; format: functional; conditions: SF-295, 24 h, read-out: Activity
# [20] = Cytotoxicity against human OVCAR5 cells assessed as cell growth at 10^-5 M after 24 hrs by SRB assay; format: functional; conditions: OVCAR-5, 24 h, read-out: Activity
# [21] = Cytotoxicity against human HCT15 cells after 24 hrs by SRB assay; format: functional, cell-based; conditions: HCT-15, 24 h
# K562 [22] = assay: Cytotoxicity against human K562 cells assessed as cell growth at 10^-6 M after 24 hrs by SRB assay; format: functional; conditions: K562, 24 h, read-out: Activity
# [23] = Cytotoxicity against human SNB19 cells assessed as cell growth at 10^-6 M after 24 hrs by SRB assay; format: functional; conditions: SNB-19, 24 h, read-out: Activity
# [24] = Cytotoxicity against human HCC2998 cells after 24 hrs by SRB assay; format: functional, cell-based; conditions: HCC 2998, 24 h
# [25] = Cytotoxicity against human OVCAR8 cells assessed as cell growth at 10^-6 M after 24 hrs by SRB assay; format: functional; conditions: OVCAR-8, 24 h, read-out: Activity
# SK-MEL-2 = assay: Cytotoxicity against human SK-MEL-2 cells assessed as growth inhibition at 10 uM after 24 hrs by SRB assay; format: functional; conditions: SK-MEL-2, 24 h, read-out: GI
# [26] = read-out: LC50 (the source's name)
# [27] = read-out: pLC50 (the source's name) (converted)
compound,measurement,setting,value
O=C(Nc1cc(-c2cccnc2)nc(NCCCN2CCOCC2)n1)c1cc(Br)cc(C(F)(F)F)c1,growth at 0.1 µM,MDA-MB-231 [1],87%
same,growth at 0.01 µM,SK-MEL-5,95%
same,growth at 10 µM,ACHN,5%
same,growth at 1 µM,CCRF-CEM,103%
same,growth at 0.01 µM,Malme-3M [2],99%
same,growth at 10 µM,T47D [3],21%
same,growth at 1 µM,HT-29,94%
same,growth at 1 µM,[4],69%
same,IC50,MDA-MB-435,1.66 µM
same,GI50,MDA-MB-435; read-out: GI50,1.66 µM
same,CC50,MDA-MB-435; [26],5.98 µM
same,TGI,MDA-MB-435; read-out: TGI,3.15 µM
same,GI50,MDA-MB-435; read-out: pGI50 (converted),1.66 µM
same,CC50,MDA-MB-435; [27],6.03 µM
same,TGI,MDA-MB-435; read-out: pTGI (converted),3.16 µM
same,growth at 1 µM,[5],92%
same,IC50,MDA-MB-231 [6],1.79 µM
same,GI50,MDA-MB-231 [6]; read-out: GI50,1.79 µM
same,CC50,MDA-MB-231 [6]; [26],8.65 µM
same,TGI,MDA-MB-231 [6]; read-out: TGI,3.93 µM
same,GI50,MDA-MB-231 [6]; read-out: pGI50 (converted),1.78 µM
same,CC50,MDA-MB-231 [6]; [27],8.71 µM
same,TGI,MDA-MB-231 [6]; read-out: pTGI (converted),3.89 µM
same,growth at 0.01 µM,EKVX,92%
same,growth at 10 µM,[7],34%
same,growth at 1 µM,[8],85%
same,growth at 1 µM,[9],88%
same,growth at 100 µM,[10],-88%
same,growth at 0.1 µM,A549 [11],109%
same,growth at 10 µM,A549 [12],51%
same,GI50,[13]; read-out: GI50,3.27 µM
same,CC50,[13]; [26],45 µM
same,TGI,[13]; read-out: TGI,15 µM
same,GI50,[13]; read-out: pGI50 (converted),3.24 µM
same,CC50,[13]; [27],44.7 µM
same,TGI,[13]; read-out: pTGI (converted),15.1 µM
same,growth at 1 µM,NCI-H226,84%
same,growth at 0.01 µM,T47D [14],91%
same,GI50,K562 [15]; read-out: GI50,2.81 µM
same,CC50,K562 [15]; [26],> 100 µM
same,TGI,K562 [15]; read-out: TGI,21.7 µM
same,GI50,K562 [15]; read-out: pGI50 (converted),2.82 µM
same,CC50,K562 [15]; [27],> 100 µM
same,TGI,K562 [15]; read-out: pTGI (converted),21.9 µM
same,growth at 1 µM,[16],95%
same,growth at 0.1 µM,Malme-3M [17],95%
same,growth at 0.01 µM,[18],99%
same,GI50,U-251; read-out: GI50,2.05 µM
same,CC50,U-251; [26],9.04 µM
same,TGI,U-251; read-out: TGI,4.3 µM
same,GI50,U-251; read-out: pGI50 (converted),2.04 µM
same,CC50,U-251; [27],9.12 µM
same,TGI,U-251; read-out: pTGI (converted),4.27 µM
same,growth at 100 µM,[19],-92%
same,growth at 10 µM,[20],40%
same,IC50,[21],1.92 µM
same,GI50,[21]; read-out: GI50,1.92 µM
same,CC50,[21]; [26],19.3 µM
same,TGI,[21]; read-out: TGI,5.28 µM
same,GI50,[21]; read-out: pGI50 (converted),1.91 µM
same,CC50,[21]; [27],19.5 µM
same,TGI,[21]; read-out: pTGI,5.25 µM
same,growth at 1 µM,K562 [22],88%
same,growth at 1 µM,[23],105%
same,GI50,[24],1.78 µM
same,CC50,[24]; [26],6.89 µM
same,TGI,[24]; read-out: TGI,3.49 µM
same,CC50,[24]; [27],6.92 µM
same,TGI,[24]; read-out: pTGI (converted),3.47 µM
same,growth at 1 µM,[25],102%
COCCCNc1nc(NC(=O)c2cc(OC)cc(OC)c2)cc(-c2cccnc2)n1,inhibition of growth at 10 µM,SK-MEL-2,21.2%
